From US20090111736A1, “Orally-Absorbed Solid Dose Formulation for Vancomycin” (SRI International, priority 2007, published 2009)
Counter-ions that a name gives are not always drawn.

How the values were obtained:
[1] = In vitro mucosal-to-serosal vancomycin transport, modified Ussing chambers, jejunum; format: in vitro ADME, rat; details: male, rat
Description: (§1) We investigated regional variation in permeation of vancomycin (VCM) across various segments of rat intestine and colon in vitro by mounting isolated segments of rat intestine and colon between horizontal modified Ussing chambers. The effects of drug concentration and of addition of a p-glycoprotein inhibitor or permeation enhancer(s) as formulation additives on VCM permeation were also studied in vitro using segments of rat jejunum.
(§2) Methods: A modified Ussing system (Easy mount Ussing system, Physiological Instruments Inc., CA, Item # EM-CSYS-8) with eight sets of chambers was used for all in vitro studies; each set consisted of two parallel diffusion chambers, a heating block for temperature control, needle valves for gas flow adjustment and gas mixing, and Ag/AgCl voltage and current electrodes for measuring transepithelial voltage and for passing current.
(§3) Harvesting of required small intestinal or colon segments of a male rat was performed using experimental procedures described in the literature (Gotoh et al., J Biomol Screen (2005) 10:517-23). The harvested segments of small intestine or colon were mounted on sliders placed between the two horizontal chambers of a modified Ussing system.
(§4) VCM was dissolved in HEPES buffer pH 7.4 (Table 1) previously saturated with 100% O2 or HEPES buffer containing additives selected from permeation enhancer(s) and/or an efflux transport inhibitor (Table 2) to obtain predetermined concentrations of drug and additive(s).
Drug transport across epithelial membranes of harvested rat small intestine and colon segments, in mucosal-to-serosal (M-to-S) direction, was studied using modified Ussing Chambers. Aliquots of HEPES buffer (5 ml) were initially added to both the mucosal and serosal chambers and allowed to equilibrate for 20 minutes. The HEPES buffer in the mucosal chamber was replaced by a study sample containing VCM alone or VCM and selected additive(s) in HEPES buffer, e.g., 5 mg/mL of VCM dissolved in HEPES buffer containing 10% w/w Labrasol®. Aliquots of 0.5 mL buffer solutions were removed periodically from serosal chambers, and replaced with equal volumes of fresh warm (37±2° C.) HEPES buffer previously saturated with 100% O2. […]
(§5) Changes in transepithelial short-circuit current (in micro-Amps) and membrane resistance (in Ohms) as a function of time were monitored continuously during in vitro studies to serve as indicators of tissue viability and drug permeability, respectively. The buffer samples from the receptor chambers were analyzed for VCM content on a high pressure liquid chromatograph (HPLC; Hewlett Packard Model 1100 series).
(§6) The analysis of VCM samples was performed using a reverse phase gradient HPLC method, with a Hypersil BDS C18 column, 5 μm, 150×4.6 mm., mobile phase consisting of 5 mM potassium phosphate monobasic in water (pH 3) as solvent A and acetonitrile as solvent B at a flow rate of 1 ml/min (Farin et al., J Pharm Biomed Anal (1998) 18:367-72). The eluant was monitored by a UV/diode array detector at 280 nm.
(§7) To compare data obtained from different in vitro experiments, the apparent permeability coefficients were calculated using the equation: […]
(§8) Where dQ/dt is the linear appearance rate of mass in receiver compartment, C0 is the initial solute concentration in donor compartment, and A is the surface area (Luo et al., Drug Metab Dispos (2002) 30:763-70).

[2] = In vitro mucosal-to-serosal vancomycin transport, modified Ussing chambers, duodenum; format: in vitro ADME, rat; details: male, rat, pH 7.4, 5 mg/ml, HEPES buffer alone
Description: as §1, §2, §3, §4
(§9) Drug transport across epithelial membranes of harvested rat small intestine and colon segments, in mucosal-to-serosal (M-to-S) direction, was studied using modified Ussing Chambers. Aliquots of HEPES buffer (5 ml) were initially added to both the mucosal and serosal chambers and allowed to equilibrate for 20 minutes. The HEPES buffer in the mucosal chamber was replaced by a study sample containing VCM alone or VCM and selected additive(s) in HEPES buffer, e.g., 5 mg/mL of VCM dissolved in HEPES buffer containing 10% w/w Labrasol®. Aliquots of 0.5 mL buffer solutions were removed periodically from serosal chambers, and replaced with equal volumes of fresh warm (37±2° C.) HEPES buffer previously saturated with 100% O2. To study the effect of additives in the serosal chamber (i.e., quinidine and sodium decanoate), HEPES buffer containing the selected additive was placed in the serosal chamber and replaced with the same buffer composition during sampling.
as §5, §6, §7, §8

rat duodenum = experiment: as above; format: in vitro ADME; details: 5 mg/ml vancomycin in HEPES buffer
Description: as §1, §2, §3, §4, §9, §5, §6, §7, §8

rat ileum = experiment: In vitro mucosal-to-serosal vancomycin transport, modified Ussing chambers, ileum; format: in vitro ADME; details: 5 mg/ml vancomycin in HEPES buffer
Description: as §1, §2, §3, §4, §9, §5, §6, §7, §8

[3] = as above; format: in vitro ADME, rat; details: male, rat, pH 7.4, 5 mg/ml, HEPES buffer alone
Description: as §1, §2, §3, §4, §9, §5, §6, §7, §8

For `CN[C@H](CC(C)C)C(=O)N[C@H]1C(=O)N[C@@H](CC(N)=O)C(=O)N[C@H]2C(=O)N[C@H]3C(=O)N[C@H](C(=O)N[C@H](C(=O)O)c4cc(O)cc(O)c4-c4cc3ccc4O)[C@H](O)c3ccc(c(Cl)c3)Oc3cc2cc(c3O[C@@H]2O[C@H](CO)[C@@H](O)[C@H](O)[C@H]2O[C@H]2C[C@](C)(N)[C@H](O)[C@H](C)O2)Oc2ccc(cc2Cl)[C@H]1O` [Vancomycin hydrochloride], the Papp at 2.5 hr, 5 mg/ml ([1]; pH 7.4, 5 mg/ml, HEPES buffer alone, jejunum) was 0.62 ± 0.07 ×10⁻⁶ cm/s, the Papp at 5 mg/ml ([1]; pH 7.4, 5 mg/ml, jejunum, 1.0 mM sodium decanoate in mucosal chamber) was 1.74 ± 0.1 ×10⁻⁶ cm/s and the Papp at 5 mg/ml ([1]; pH 7.4, 5 mg/ml, jejunum, 1.0 mM sodium decanoate in serosal chamber) was 0.6 ± 0.02 ×10⁻⁶ cm/s. The Papp at 5 mg/ml ([1]; pH 7.4, 5 mg/ml, jejunum, HEPES buffer containing 5% w/w Gelucire ® 44/14) was 0.78 ± 0.03 ×10⁻⁶ cm/s, the Papp at 5 mg/ml ([1]; pH 7.4, 5 mg/ml, jejunum, HEPES buffer containing 5% w/w Gelucire ® 44/14 + 5% w/w Labrasol ®) was 0.71 ± 0.03 ×10⁻⁶ cm/s and the Papp at 5 mg/ml ([1]; pH 7.4, 5 mg/ml, jejunum, HEPES buffer containing 5% w/w Polysorbate-80) was 0.88 ± 0.09 ×10⁻⁶ cm/s. The Papp at 5 mg/ml ([1]; pH 7.4, 5 mg/ml, jejunum, HEPES buffer containing 5% w/w Polysorbate-80 + 5% w/w Labrasol ®) was 0.53 ± 0.06 ×10⁻⁶ cm/s, the Papp at 5 mg/ml ([1]; pH 7.4, 5 mg/ml, jejunum, HEPES buffer containing 5% w/w Vitamin E TPGS + 5% w/w Labrasol ®) was 0.56 ± 0.06 ×10⁻⁶ cm/s and the Papp at 5 mg/ml ([1]; pH 7.4, 5 mg/ml, jejunum, HEPES buffer containing 10% w/w Labrasol ®) was 0.36 ± 0.06 ×10⁻⁶ cm/s. For the same compound, the Papp at 5 mg/ml ([1]; pH 7.4, 5 mg/ml, jejunum, HEPES buffer containing 20% w/w Bile salts) was 3.67 ± 0.58 ×10⁻⁶ cm/s, the Papp at 2.5 hr, 10 mg/mL ([1]; pH 7.4, 10 mg/mL, HEPES buffer alone, jejunum) was 0.57 ± 0.13 ×10⁻⁶ cm/s and the Papp at 2.5 hr, 25 mg/mL ([1]; pH 7.4, 25 mg/mL, HEPES buffer alone, jejunum) was 0.54 ± 0.69 ×10⁻⁶ cm/s. The Papp at 2.5 hr, 50 mg/mL ([1]; pH 7.4, 50 mg/mL, HEPES buffer alone, jejunum) was 0.39 ± 0.47 ×10⁻⁶ cm/s, the Papp at 2.5 hr, 5 mg/mL ([1]; pH 7.4, jejunum, in the presence of 10% w/w Labrasol®) was 0.36 ×10⁻⁶ cm/s and the Papp at 2.5 hr, 5 mg/ml ([1]; pH 7.4, with quinidine 0.15 mM in the mucosal chamber, 5 mg/ml, jejunum, 0.15 mM Quinidine in mucosal chamber) was 0.79 ± 0.08 ×10⁻⁶ cm/s. For the same compound, the Papp at 2.5 hr, 5 mg/ml ([1]; pH 7.4, with quinidine 0.15 mM in the serosal chamber, 5 mg/ml, jejunum, 0.15 mM Quinidine in serosal chamber) was 2.06 ± 0.16 ×10⁻⁶ cm/s, the Papp at 2.5 hr, 5 mg/ml [2] was 0.2 ± 0.05 ×10⁻⁶ cm/s and the “Ave. Cumulative Amt VCM Released” value (rat duodenum; 0.5 hr) was 0.00 ± 0.00 µg. The “Ave. Cumulative Amt VCM Released” value (rat duodenum; 1.0 hr) was 0.00 ± 0.00 µg, the “Ave. Cumulative Amt VCM Released” value (rat duodenum; 1.5 hr) was 0.40 ± 0.80 µg and the “Ave. Cumulative Amt VCM Released” value (rat duodenum; 2.0 hr) was 2.08 ± 0.87 µg. For the same compound, the “Ave. Cumulative Amt VCM Released” value (rat duodenum; 2.5 hr) was 3.51 ± 1.34 µg, the “Ave. Cumulative Amt VCM Released” value (rat ileum; 0.5 hr) was 0.00 ± 0.00 µg and the “Ave. Cumulative Amt VCM Released” value (rat ileum; 1.0 hr) was 0.00 ± 0.00 µg. The “Ave. Cumulative Amt VCM Released” value (rat ileum; 1.5 hr) was 2.55 ± 0.67 µg, the “Ave. Cumulative Amt VCM Released” value (rat ileum; 2.0 hr) was 4.31 ± 1.17 µg and the “Ave. Cumulative Amt VCM Released” value (rat ileum; 2.5 hr) was 6.33 ± 1.66 µg. The Papp at 2.5 hr, 5 mg/ml [3] was 0.38 ± 0.05 ×10⁻⁶ cm/s.
